Source: patent US4031218A, “7-(2,3-Dihydroxypropyl-1,3-di-n-propylxanthine and a pharmaceutical composition containing same useful as a bronchial muscle relaxant” (Mallinckrodt, Inc., priority 1976, dated 1977)
In brackets after ≈: the same amount, converted by molar mass.

Tests used:
[1] = tested on: histamine-induced bronchospasm; experiment: Protection against histamine aerosol in guinea pigs (in vivo bronchodilator); set-up: species or system guinea pig; conditions: relative to theophylline, molar basis; for Bronchodilator activity, In-Vivo I.P. (G. Pig), relative molar activity: 15-20 min after injection; for Bronchodilator activity, In-Vivo, Oral (G. Pig), relative molar activity: 35-40 min after gavage
Procedure: With the exception of theophylline, all compounds were administered as the free base dissolved or suspended in appropriate aqueous vehicles. […] Final comparisons were always based on the calculated dose of theophylline. Because of obvious differences in molecular weights, all compounds were compared on a molar basis rather than on absolute weight.
2. Protection Against Histamine Aerosol
Adult Camm English Short Hair male albino guinea pigs (270-600 gm.) were singularly confined in an inverted glass aquarium and continuously exposed to a finely atomized mist of 0.5% histamine diphosphate produced by a Devilbiss No. 40 nebulizer and compressed air at 300 mm. Hg. pressure. The period from the start of aerosolization until the appearance of ultimate collapse or convulsions is defined as the preconvulsive time and is relatively constant in the same animal. Preconvulsive times were determined for each dose of each compound in at least six guinea pigs. Control preconvulsive times were obtained three days prior to and three days following drug administration. Percent protection afforded by each compound was calculated by the formula:
% Protection = (1- C/T) × 100
where C is the average control preconvulsive time and T is the test preconvulsive time after compound administration, both in seconds.
The PD50 of each experimental compound was determined after both intraperitoneal and oral administration. A minimum of 3 dose levels and 6 animals per dose were employed to obtain meaningful dose-response data. Protection was assessed 15-20 minutes after intraperitoneal injection and 35-40 minutes after oral gavage with a flexible plastic tube. Animals were fasted overnight prior to oral dosing. All compounds were administered in aqueous solution in concentrations commensurate to a proper volume dose. Guinea pigs were utilized between 1 and 3 times but no animal received the same compound twice in succession with a minimum of 3 days rest between doses.

[2] = tested on: isolated rabbit heart; experiment: Isolated rabbit heart preparation (Langendorff); type: cell-based; conditions: mean for myocardial contractile force, heart rate, coronary flow; relative to theophylline
Procedure: 2. Isolated Rabbit Heart Preparation
In-vitro cardiodynamic activity of each compound except dyphylline was determined on the spontaneously beating isolated rabbit heart by the Langendorff method as modified by Anderson and Craver (J. Pharmacol. Exp. Ther., 93:135, 1948). After securing the extracted heart's ascending aorta to the apparatus, the coronaries were continuously perfused with aerated Chenoweth's solution (Chenoweth and Koelle, J. Lab. Clin. 31:600, 1946) maintained at a constant pressure-head and temperature of 38° C. The effects of logarithmically increasing doses of each compound were determined on contractile force, heart rate, and coronary flow. Drugs were dissolved in minimal volumes of Chenoweth's solution and injected into the downspout containing perfusate at 5-10 minute intervals.

[3] = Intravenous emetic study in dogs (ED50); type: in vivo, dog; conditions: dog, in vivo, iv; read-out: ED50 (median emetic dose), I.V. Dogs
Procedure: (§1) Twelve adult mongrel dogs of either sex were employed to determine the median emetic dose (ED50) of all five experimental compounds after intravenous administration. […] Onset, frequency, and duration of emetic episodes were also recorded. The dogs were not fasted, were allowed at least 2 days rest between doses, and no animal received the same compound twice in succession. […] ED50 values were calculated according to the method of Litchfield and Wilcoxon (1949).

[4] = tested on: dogs; experiment: Intravenous emetic study in dogs (ED50); type: in vivo, dog; conditions: for Emetic effect, I.V. Dogs: estimated at HBD; for I.V. Emetic (Dogs), relative molar activity: relative to theophylline, molar basis
Procedure: as §1

[5] = tested on: mice; experiment: Voluntary motor activity in mice (CNS stimulation); type: in vivo, male albino Swiss mice; conditions: for CNS Activity, I.P. Mice / CNS Activity, I.P. Mice, change: estimated at HBD; for I.P. CNS Stimulation (Mice), relative molar activity: relative to theophylline, molar basis; for CNS Activity, I.P. Mice, change: voluntary motor activity
Procedure: F. Voluntary Motor Activity Studies in Mice In an attempt to quantitatively assess central nervous system activity, each compound was evaluated for its influence on voluntary motor activity in mice according to the method described by Dews (British J. Pharmacol. 8:46, 1953). Three cylindrical actophotometer cages were utilized simultaneously, each with six light beams and six photoelectric cells. Individual digital counters were connected to each activity cage. Male albino Swiss mice with weights ranging between 19 and 24 gm were used throughout. Compounds were dissolved in distilled water and were injected intraperitoneally in logarithmically spaced doses to groups of five mice, three groups per dose level. Control groups received saline.

[6] = tested on: rats; experiment: Acute oral diuretic evaluation in rats; type: in vivo, Sprague Dawley rats; conditions: relative to theophylline, molar basis
Procedure: 1. Acute Oral Evaluation in Rats
The oral diuretic effect of each compound was estimated in rats by a modification of the method described by Lipschitz et al. (J. Pharmacol. Exp. Ther. 79:97, 1943). Male Sprague Dawley rats (Carworth) weighing between 153 and 220 gms were fasted overnight. Groups of five animals each were administered three appropriate logarithmically spaced doses of each compound dissolved in saline in a constant volume dose of 25 ml/kg via an oral feeding needle. Controls received the same dose of only saline. The rats were then placed in individual metabolism cages and deprived of food and water for the remainder of the experiment. At the end of six hours, each rat was forced to expel urine in the bladder by pulling on the base of the tail. Parameters measured included urine volume, pH, and sodium and potassium excretion as measured by atomic absorption analysis. Six hour values were averaged for each dose of compound and for controls and were compared accordingly.

[7] = tested on: human bronchodilator; experiment: Estimated human bronchodilator dose equivalent to recommended theophylline dose; conditions: based on recommended theophylline dose and relative bronchodilator activities
Excerpt: Experimental results are summarized in Table I wherein pharmacologic and toxicologic activities relative to that of theophylline are expressed on a molar basis.
^a - Dose: Based on the recommended dose for theophylline and the
relative activities in the bronchodilator experiments.

[8] = Bronchodilator activity; conditions: compared with theophylline
[9] = Solubility; conditions: for Solubility in words: water solubility, qualitative
[10] = tested on: dogs; experiment: Intravenous cardiovascular evaluation in dogs; conditions: for CF (coronary flow) change / CO (cardiac output) change / CW (cardiac work) change / HR (heart rate) change / MAP (mean arterial pressure) change / MCF (myocardial contractile force) change / TPR (total peripheral resistance) change / Cardiovascular effects (Mean): i.v. dogs, estimated at HBD; for I.V. Cardiovascular (Dogs), mean relative molar activity: mean for arterial pressure, heart rate, contractile force, cardiac output, stroke volume, cardiac work, TPR, coronary flow and resistance, relative to theophylline; for Cardiovascular effects (Mean): mean of the cardiovascular changes
Procedure: Intravenous Cardiovascular Evaluation in Dogs
Thirteen adult mongrel dogs of either sex ranging in weight from 16.7 to 25.0 kg were employed to compare the overall intravenous cardiovascular activity of the five experimental compounds.
Dogs were anesthetized with pentobarbital sodium, 30-35 mg/kg i.v., fitted with a cuffed endotracheal tube, and ventilated with a Harvard Animal Respiratory Pump. A femoral vein was cannulated for i.v. drug administration. The left common carotid artery was cannulated and the cannula tip advanced into the aortic arch. A median sternotomy was performed and appropriately sized electromagnetic blood flow transducers (Biotronex) were placed around the ascending aorta and left anterior descending coronary artery. These procedures allowed continuous recording or calculation of the following parameters:
a. Mean Arterial Pressure (MAP); from the aortic cannula.
b. Heart Rate (HR); electronically from pulsatile ascending aortic flow.
c. Cardiac Output (CO); mean ascending aortic flow.
d. Myocardial Contractile Force (MCF); dQ/dt, the first derivative of maximum aortic flow rate, also known as peak aortic flow acceleration.
e. Stroke Volume (SV); quotient of CO/HR.
f. Cardiac Work (CW); product of CO X MAP.
g. Total Peripheral Resistance (TPR); quotient of MAP/CO.
h. Coronary Flow (CF); mean left anterior descending (LAD) coronary flow.
i. Coronary Resistance (CR); quotient of MAP/CF.
Logarithmically increasing doses of the appropriate compound were injected at 20-minute intervals. Responses were measured at 1, 2, 5, 10, 15 and 20 minutes after each dose and the average response during that period was calculated. Theophylline (aminophylline), dyphylline (II), and Compound V were employed in both 20 and 80 mg/ml concentrations in distilled water. Compounds III and IV were used in 10 and 30 mg/ml concentrations respectively.

[11] = Acute toxicity and side effects; conditions: compared with theophylline

Row | Compound | Bronchodilator activity, In-Vivo I.P. (G. Pig), relative molar activity [1] | Bronchodilator activity, In-Vivo, Oral (G. Pig), relative molar activity [1] | In-Vitro; MCF, HR, CF (Rabbit Heart), mean relative molar activity [2] | ED50 [3] | Emetic effect, I.V. Dogs [4] | I.V. Emetic (Dogs), relative molar activity [4] | I.P. CNS Stimulation (Mice), relative molar activity [5] | Oral Diuretic (Rats), relative molar activity [6] | Estimated Human Bronchodilator Dose (HBD), per 70 kg [7] | Estimated Human Bronchodilator Dose (HBD), per kg [7] | solubility ([9]; water) | CF (coronary flow) change [10] | CO (cardiac output) change [10] | CW (cardiac work) change [10] | HR (heart rate) change [10] | MAP (mean arterial pressure) change [10] | MCF (myocardial contractile force) change [10] | TPR (total peripheral resistance) change [10] | I.V. Cardiovascular (Dogs), mean relative molar activity [10] | Cardiovascular effects (Mean) [10] | other results
1 | CCCn1c(=O)c2c(ncn2CC(C)O)n(CCC)c1=O (centres unmarked) [III, 7-(2-hydroxypropyl) 1,3-di-n-propylxanthine] | 3.26 | 3.30 | 1.40 | 0.7 mg/kg | Severe | 134.17 | 1.73 | 7.29 | 99 mg/70 kg | 1.4 mg/kg | 10 mg/mL (≈ 34 mM) | +8 %Δ | +10 %Δ | +2 %Δ | +21 ΔBPM | -8 ΔmmHg | +28 %Δ | -15 %Δ | 1.16 | 13 | CNS Activity, I.P. Mice [5]: Severe; CNS Activity, I.P. Mice, change [5]: -60 %Δ; Bronchodilator potency in words [8]: more potent bronchodilators than theophylline; Solubility in words [9]: low solubilities; Acute toxicity, emetic, cardiovascular, CNS and diuretic effects in words [11]: increased undesirable emetic, cardiovascular and central nervous system (CNS) effects
2 | Cn1c(=O)c2c(ncn2CC(O)CO)n(C)c1=O (centres unmarked) [Compound II, 7-(2,3-dihydroxypropyl) 1,3-dimethylxanthine] | 0.12 | 0.13 |  | 900 mg/kg | None | 0.09 | 0.18 | 0.71 | 2353 mg/70 kg | 33.6 mg/kg | 330 mg/mL (≈ 1300 mM) | +10 %Δ | -15 %Δ | -30 %Δ | +11 ΔBPM | -20 ΔmmHg | -5 %Δ | +3 %Δ | 0.36 | 13 | 
3 | CCCn1c(=O)c2c(ncn2CCCO)n(CCC)c1=O [IV, 7-(3-hydroxypropyl)-1,3-di-n-propylxanthine] | 0.94 | 0.92 | 1.81 | 7.5 mg/kg | Moderate | 12.88 | 0.48 | 1.48 | 347 mg/70 kg | 5.0 mg/kg | 30 mg/mL (≈ 102 mM) | +4 %Δ | +2 %Δ | -26 %Δ | +80 ΔBPM | -25 ΔmmHg | +20 %Δ | -5 %Δ | 2.02 | 23 | CNS Activity, I.P. Mice [5]: Moderate; CNS Activity, I.P. Mice, change [5]: -17 %Δ; Bronchodilator potency in words [8]: more potent bronchodilators than theophylline; Solubility in words [9]: low solubilities; Acute toxicity, emetic, cardiovascular, CNS and diuretic effects in words [11]: increased undesirable emetic, cardiovascular and central nervous system (CNS) effects
4 | CCCn1c(=O)c2c(ncn2CC(O)CO)n(CCC)c1=O (centres unmarked) [Compound V, 7-(2,3-dihydroxypropyl)-1,3-di-n-propylxanthine] | 1.56 | 0.75 | 0.93 | 53 mg/kg | None | 1.91 | 0.30 | 1.05 | 299 mg/70 kg | 4.3 mg/kg | 100 mg/mL (≈ 322 mM) | +17 %Δ | +6 %Δ | +2 %Δ | +7 ΔBPM | -5 ΔmmHg | +15 %Δ | -9 %Δ | 0.91 | 9 | CNS Activity, I.P. Mice [5]: None; CNS Activity, I.P. Mice, change [5]: -1 %Δ; Bronchodilator potency in words [8]: comparable to theophylline as a bronchodilator; solubility ([9]; chloroform, organic solvent or mixture): ~310 mg/mL (≈ 999 mM); Solubility in words [9]: considerably more water soluble than theophylline; Acute toxicity, emetic, cardiovascular, CNS and diuretic effects in words [11]: less active in regard to acute toxicity as well as undesirable cardiovascular, CNS, diuretic and oral emetic effects
